Consider five substances from patent US9938320B2, “Peptides for promoting angiogenesis and use thereof” (INDUSTRY-ACADEMIC COOPERATION FOUNDATION, SOOKMYUNG WOMEN'S …, priority 2010, dated 2018).

The subject of experiment [1] is HUVECs. The experiment is described as follows: Migration of HUVECs through polycarbonate filter chamber. It counts as cell-based, human. The conditions noted are these: 37° C. for 10 hours, negative control (untreated) = 100. Here is the method:
In order to investigate the effect of the 4 peptides prepared in Example 1 on blood vessel formation, migration of HUVECs was measured.
The bottom portion of a chamber of a 24-well plate (Corning Costar, USA) having a polycarbonate filter with pores therebelow was coated with 0.5 mg/mL collagen type 1 ([…]). After adding EBM-2 containing the 4 peptides of the peptide of the present invention to the bottom portion of the chamber, HUVECs were inoculated at the upper portion of the chamber, with 1×10^5 cells per well. After incubation at 37° C. for 10 hours, the cells that had passed through the polycarbonate filter were fixed with methanol, stained with hematoxylin, and counted under a microscope.

The test system of experiment [2] is human umbilical vein endothelial cells (HUVECs). The experiment in a line: Proliferation of HUVECs (CyQUANT kit). The conditions noted are these: 48 hours with peptide, negative control (untreated) = 100. It counts as cell-based. Here is the method: In order to investigate the effect of the 4 peptides prepared in Example 1 on blood vessel formation, human umbilical vein endothelial cells (HUVECs) were treated with the peptide of the present invention and their proliferation was observed.
HUVECs were cultured in endothelial cell basal medium-2 (EBM-2, Clonetics Co., San Diego, USA) containing 2% fetal bovine serum (FBS). The cultured HUVECs were transferred to a 96-well plate, with 1000 cells per each well. After culturing for 24 hours followed by addition of the 4 peptides of the peptide of the present invention to each well, they were further cultured for 48 hours. The cells treated with VEGF instead of the peptide of the present invention and those treated with nothing were cultured under the same condition, as positive control group and negative control group, respectively. Upon completion of the culturing, the degree of cell proliferation was measured using the CyQUANT kit (Invitrogen, USA).

In the case of “NQES (Pep_10 Artificial Peptide for Promotion of Angiogenesis)”, in experiment [1], the “Cell migration (%)” value is listed as 173.2%. In addition, the “Cell proliferation (%)” value in experiment [2] is recorded as 146.5%.
As for “PKES (Pep_9 Artificial Peptide for Promotion of Angiogenesis)”, the “Cell migration (%)” value in experiment [1] turned out to be 156.4%. Also, the “Cell proliferation (%)” value in experiment [2] worked out at 212.5%.
In the case of “SDRGA (Pep_8 Artificial Peptide for Promotion of Angiogenesis)”, the “Cell migration (%)” value in experiment [1] is given as 147.0%. For the same substance, the “Cell proliferation (%)” value in experiment [2] was found to be 209.2%.
Consider “SEGQK (Pep_7 Artificial Peptide for Promotion of Angiogenesis)”, for which, in experiment [1], the “Cell migration (%)” value came to 155.4%. Also, the “Cell proliferation (%)” value in experiment [2] is on record as 203.3%.
For the substance VEGF, the “Cell migration (%)” value in experiment [1] is 146.3%. Besides, the “Cell proliferation (%)” value in experiment [2] was determined as 166.0%.
